{
  "source": "patent US8039635B2",
  "about": "“N-hydroxy-4-{5-[4-(5-isopropyl-2-methyl-1,3-thiazol-4-yl) phenoxy]pentoxy} benzamidine 2 ethansulfonic acid salt, process for the preparation thereof and pharmaceutical composition comprising the same” (Dong Wha Pharmaceutical Co., Ltd., priority 2007, dated 2011)",
  "key": {"[1]": {"assay": "Pharmacokinetic evaluation (bioavailability) in SD rats", "type": "in vivo", "conditions": "50 mg/kg", "description": "The N-hydroxy-4-{5-[4-(5-isopropyl-2-methyl-1,3-thiazol-4-yl)phenoxy]pentoxy}benzamidine 2 ethansulfonic acid salt prepared in Example 1, and the N-hydroxy-4-{5-[4-(5-isopropyl-2-methyl-1,3-thiazol-4-yl)phenoxy]pentoxy}benzamidine 2 methansulfonic acid salt prepared in Comparative Example 2 were individually administered to SD rats in a dosage of 50 mg/kg. At given time points (0, 0.5, 1, 1.5, 2, 3, 5 and 8 hrs), rats were mildly anesthetized with diethyl ether, and blood samples were collected from the orbital venous plexus and stored at −20° C. until concentration analysis. The plasma samples were mixed with an equal volume of an internal standard substance solution (prepared by dissolving betamethasone in acetonitrile to give a final concentration of 30 μg/ml) with agitation for 1 min, and was centrifuged at 12,000 rpm for 10 min. Active components of the plasma samples were analyzed by HPLC (Model: Waters Module 1). From the obtained data, pharmacokinetic parameters [maximum blood concentration (Cmax) and area under the blood concentration-time curve (AUC)] were calculated by noncompartment analysis using the WinNonlin program (Version 1.0, Scientific Consulting Inc., USA)."}, "[2]": {"assay": "Evaluation of release rate in buffer solution (pH 1.2), paddle 50 rpm", "type": "physicochemical", "conditions": "for release rate: buffer pH 1.2, paddle 50 rpm", "from_the_text": "(§1) The N-hydroxy-4-{5-[4-(5-isopropyl-2-methyl-1,3-thiazol-4-yl)phenoxy]pentoxy}benzamidine 2 ethansulfonic acid salt prepared in Example 1, the N-hydroxy-4-{5-[4-(5-isopropyl-2-methyl-1,3-thiazol-4-yl)phenoxy]pentoxy}benzamidine prepared in Comparative Example 1, and the N-hydroxy-4-{5-[4-(5-isopropyl-2-methyl-1,3-thiazol-4-yl)phenoxy]pentoxy}benzamidine 2 methansulfonic acid salt prepared in Comparative Example 2 were examined for release rate (%) in a buffer solution (pH 1.2) at a paddle rotation speed of 50 rpm."}, "[3]": {"assay": "Evaluation of solubility in solvents at room temperature", "type": "physicochemical", "from_the_text": "as §1, with “solubility (μg/ml)” for “release rate (%)”, “various solvents” for “a buffer solution (pH 1.2)”, “room temperature.” for “a paddle rotation speed of 50 rpm.”"}, "ovalbumin-induced asthma": {"system": "ovalbumin-induced asthma", "conditions": "asthmatic mice, cited from earlier work"}, "callus / bone fractures": {"system": "callus / bone fractures", "conditions": "rats, vs untreated control; cited from earlier work"}, "[4]": {"assay": "Evaluation of stability under accelerated conditions, HPLC content", "type": "physicochemical", "conditions": "for change in content (stability in words): 60°C, 2 weeks; for Content: 60°C±2/75% RH±5, cap-opened vial", "description": "The N-hydroxy-4-{5-[4-(5-isopropyl-2-methyl-1,3-thiazol-4-yl)phenoxy]pentoxy}benzamidine 2 ethansulfonic acid salt prepared in Example 1 was placed into a transparent glass vial, and stored at a cap-opened state under accelerated conditions (60° C.±2/75% RH±5) for a period of two weeks. Thereafter, the sample was analyzed by HPLC (Waters Module 1). The analysis was performed using a column packed with an octadecyl-silylated silica gel (Shiseido CAPCELL PAK C18, UG 120, Particle size 5 μm) under conditions: UV detection: 256 nm, injection volume: 10 μl, mobile-phase flow rate: 1.5 mL/min. The amount of the compound was calculated as an area percentage."}, "[5]": {"conditions": "dose-dependent, vs control group"}},
  "note": "Where a name gives a salt, the structure may show the parent alone.",
  "data": [
    {"smiles": "CS(=O)(=O)O.CS(=O)(=O)O.Cc1nc(-c2ccc(OCCCCCOc3ccc(C(=N)NO)cc3)cc2)c(C(C)C)s1", "note": "[2 Methansulfonic acid salt, N-hydroxy-4-{5-[4-(5-isopropyl-2-methyl-1,3-thiazol-4-yl)phenoxy]pentoxy}benzamidine 2 methansulfonic acid salt]", "values": [
      {"measurement": "AUC (area under the blood concentration-time curve)", "setting": "[1]; SD rats", "value": "8970 ± 3090", "unit": "ng·h/mL"},
      {"measurement": "Cmax (maximum blood concentration)", "setting": "[1]; SD rats", "value": "1792 ± 912", "unit": "ng/mL"},
      {"measurement": "Tmax (time to reach maximum plasma concentration)", "setting": "[1]; SD rats", "value": "3.00 ± 1.63", "unit": "h"},
      {"measurement": "release rate", "setting": "[2]; 5 min", "value": 5.3, "unit": "%"},
      {"measurement": "release rate", "setting": "[2]; 10 min", "value": 13.9, "unit": "%"},
      {"measurement": "release rate", "setting": "[2]; 15 min", "value": 20.1, "unit": "%"},
      {"measurement": "release rate", "setting": "[2]; 30 min", "value": 34.3, "unit": "%"},
      {"measurement": "solubility", "setting": "[3]; distilled water, room temperature", "value": "3,535 μg/ml"}
    ]},
    {"smiles": "Cc1nc(-c2ccc(OCCCCCOc3ccc(C(=N)NO)cc3)cc2)c(C(C)C)s1", "note": "[free base, N-hydroxy-4-{5-[4-(5-isopropyl-2-methyl-1,3-thiazol-4-yl)phenoxy]pentoxy}benzamidine]", "values": [
      {"measurement": "release rate", "setting": "[2]; 5 min", "value": 1.2, "unit": "%"},
      {"measurement": "release rate", "setting": "[2]; 10 min", "value": 3.5, "unit": "%"},
      {"measurement": "release rate", "setting": "[2]; 15 min", "value": 7.9, "unit": "%"},
      {"measurement": "release rate", "setting": "[2]; 30 min", "value": 21.3, "unit": "%"},
      {"measurement": "number of eosinophils in bronchoalveolar lavage fluid", "setting": "ovalbumin-induced asthma; [5]", "value": "significantly decreased"},
      {"measurement": "total number of leukocytes and number of eosinophils (peripheral blood)", "setting": "ovalbumin-induced asthma; [5]", "value": "significantly decreased"},
      {"measurement": "increase in lung weight", "setting": "ovalbumin-induced asthma; oral, 18 days, vs control given sterile distilled water", "value": "suppressed the increase in lung weight"},
      {"measurement": "alveolar area", "setting": "ovalbumin-induced asthma; vs control group", "value": "significantly increased"},
      {"measurement": "bone mineral content and mechanical strength of callus", "setting": "callus / bone fractures", "value": "significantly enhanced"},
      {"measurement": "bone tissue density", "setting": "callus / bone fractures", "value": "significantly increased"},
      {"measurement": "callus volume", "setting": "callus / bone fractures", "value": "significantly reduced"},
      {"measurement": "content of connective and soft tissues in the callus tissue", "setting": "callus / bone fractures", "value": "significantly reduced"}
    ]},
    {"smiles": "Cc1nc(-c2ccc(OCCCCCOc3ccc(C(=N)NO)cc3)cc2)c(C(C)C)s1", "note": "[2 Ethansulfonic acid salt, N-hydroxy-4-{5-[4-(5-isopropyl-2-methyl-1,3-thiazol-4-yl)phenoxy]pentoxy}benzamidine 2 ethansulfonic acid salt]", "values": [
      {"measurement": "AUC", "setting": "[1]; SD, rat, in vivo", "value": "10800 ± 833", "unit": "ng·h/mL"},
      {"measurement": "AUC, fold higher than 2 methanesulfonic acid salt", "setting": "[1]; SD, rat, in vivo", "value": "about 1.2 fold"},
      {"measurement": "Cmax", "setting": "[1]; SD, rat, in vivo", "value": "2360 ± 183", "unit": "ng/mL"},
      {"measurement": "Cmax, fold higher than 2 methanesulfonic acid salt", "setting": "[1]; SD, rat, in vivo", "value": 1.3, "unit": "fold"},
      {"measurement": "Tmax", "setting": "[1]; SD, rat, in vivo", "value": "2.13 ± 0.63", "unit": "h"},
      {"measurement": "Tmax, fold faster than 2 methanesulfonic acid salt", "setting": "[1]; SD, rat, in vivo", "value": 1.4, "unit": "fold"},
      {"measurement": "release rate", "setting": "[2]; 5 min", "value": 14.8, "unit": "%"},
      {"measurement": "release rate", "setting": "[2]; 10 min", "value": 20.5, "unit": "%"},
      {"measurement": "release rate", "setting": "[2]; 15 min", "value": 24.2, "unit": "%"},
      {"measurement": "release rate", "setting": "[2]; 30 min", "value": 31.3, "unit": "%"},
      {"measurement": "release rate, fold higher than 2 methanesulfonic acid salt", "setting": "[2]; after 5 min", "value": "about 2.8 fold"},
      {"measurement": "release rate, fold higher than 2 methanesulfonic acid salt", "setting": "[2]; after 10 min", "value": "about 1.4 fold"},
      {"measurement": "release rate, fold higher than 2 methanesulfonic acid salt", "setting": "[2]; after 15 min", "value": "about 1.2 fold"},
      {"measurement": "change in content (stability in words)", "setting": "[4]", "value": "no change in content"},
      {"measurement": "change in content (stability in words)", "setting": "[4]; listed as 2 ethanesulfonic acid salt", "value": "no change in its content"},
      {"measurement": "Content", "setting": "[4]; after 1 week", "value": 99.88, "unit": "%"},
      {"measurement": "Content", "setting": "[4]; after 2 weeks", "value": 99.86, "unit": "%"},
      {"measurement": "Content", "setting": "[4]; early stage", "value": 100.00, "unit": "%"},
      {"measurement": "solubility", "setting": "[3]; water", "value": 4420, "unit": "µg/mL"}
    ]}
  ]
}
